US4223137A, “Carbostyril derivatives and process for preparing the same” (Otsuka Pharmaceutical Co., Ltd., priority 1976, dated 1980)
Several values for one entry are separate records, joined by “and”; a condition that tells them apart may be missing. Equal values may be shown once. Read-outs that look alike come from different tables or passages of the source.

Experiments:
[1] = tested on: β2-receptor; test: Separation of bronchial resistance effect from heart rate effect (β2 selectivity), anesthetized dogs; type: in vivo, dog (male hybrid adult dogs); details: i.v.
Description: The stimulating activity of the compounds of this invention on β-adrenoreceptor was determined as follows: Male hydrid adult dogs, weighing 10 to 15 kg, were anesthesized with sodium pentobartital administered intravenously at a level of 30 mg/kg of body weight. Each of the anesthesized dogs was secured on its back and a cannula was inserted into the trachea. Artificial respiration was conducted using a device according to the Konzett-Rossler method (Konzett H. & Rossler R., "Versuchsanordnug zu Untersuchungen an der Bronchial Moskolatur", Arch. Exp. Path., Pharmack, 195, 71-74, 27-40 (1940). The volume of the air which overflowed at the time of inhalation was measured through a pneumotachometer to determine the bronchial resistance and the values obtained were recorded on a polygraph.
(§1) In the above procedure, histamine was employed as a bronchoconstrictor at a dosage level of 10 μg/kg of body weight, and an aqueous solution containing each of the test compounds and controls shown in Table 1 below was then administered to each of the anesthesized dogs through the femoral vein at the various dosage levels as shown in Table 1 below 1 minute before the administration of the histamine. Sodium pentobartital was infused during the procedure at a dosage level of 4 mg/kg of body weight/hr using an automatic injector in order to inhibit spontaneous respiration and to maintain the anesthetic condition constant over the test period.
(§2) ED50 values were calculated using a Dose Response curve. At the same time the pulse was measured through a transducer and the value was recorded on a polygraph.

[2] = tested on: β-adrenoreceptor; test: Heart rate (pulse) increase, i.v., anesthetized dogs; type: in vivo, dog (male hybrid adult dogs); details: for Heart Rate (HR) ED25 beats/min, Compound: pulse increase; for Heart Rate (HR) Relative Potency: ED25 compared to isoproterenol as standard compound
Description: (§3) The stimulating activity of the compounds of this invention on β-adrenoreceptor was determined as follows: Male hydrid adult dogs, weighing 10 to 15 kg, were anesthesized with sodium pentobartital administered intravenously at a level of 30 mg/kg of body weight. Each of the anesthesized dogs was secured on its back and a cannula was inserted into the trachea.
as §1, §2

[3] = target: T1, β-adrenoreceptor (Canis lupus familiaris, UniProt P54833); test: Inhibition of histamine-induced bronchial resistance increase (bronchospasm), i.v., Konzett-Rossler method, anesthetized dogs; type: in vivo, dog (male hybrid adult dogs); details: for Bronchial Resistance (BR) Relative Potency: ED50 compared to isoproterenol as standard compound; for ED50: dog, iv
T1 construct: from tissue; host or cells: airways of anesthetized dogs, in vivo
Description: as §3, §1, §2

[4] = Acute toxicity by intravenous administration; details: rat, in vivo, i.v., male rats (dd strain, 18 to 22 g), fasted 12 hours, read-out: LD50 (50% lethal dose)
Description: Further, the acute toxicity by intravenous administration was determined with respect to the test compounds shown in Table 2 below using 5 to 6 groups each containing 10 male rats (dd strain; body weight: 18 to 22 g) which had been fasted for 12 hours prior to the test. The LD50 (50% lethal dose) results are as follows.

[5] = read-out: Bronchial Resistance (BR) ED50, Compound

T1 sequence (P54833 whole entry): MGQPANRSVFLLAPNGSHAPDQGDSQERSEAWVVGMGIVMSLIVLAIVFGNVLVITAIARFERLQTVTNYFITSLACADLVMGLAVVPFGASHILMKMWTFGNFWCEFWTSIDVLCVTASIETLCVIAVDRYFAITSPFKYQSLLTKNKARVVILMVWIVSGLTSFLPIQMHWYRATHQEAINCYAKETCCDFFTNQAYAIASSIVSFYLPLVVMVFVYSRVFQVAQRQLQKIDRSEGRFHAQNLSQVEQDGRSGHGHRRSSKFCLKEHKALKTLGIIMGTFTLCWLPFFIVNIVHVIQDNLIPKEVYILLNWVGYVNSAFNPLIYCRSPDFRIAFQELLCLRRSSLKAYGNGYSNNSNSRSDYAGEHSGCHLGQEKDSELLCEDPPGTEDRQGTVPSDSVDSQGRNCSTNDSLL

Row | Structure (SMILES) | Separation Ratio HR(Relative Potency)/BR(Relative Potency) [1] | Heart Rate (HR) ED25 beats/min, Compound ([2]; i.v., anesthetized dogs) [µg/kg] | Heart Rate (HR) Relative Potency [2] | Bronchial Resistance (BR) Relative Potency [3] | Bronchial Resistance (BR) ED50, Compound ([3]; i.v. 1 minute before histamine 10 μg/kg, anesthetized dogs) [µg/kg] | ED50 [3, 5] [µg/kg] | LD50 [4] [µg/kg] | Heart Rate (HR) ED25 beats/min, Isoproterenol ([2]; isoproterenol as standard compound for the compound of the same line, i.v., anesthetized dogs) | ED50 ([3]; read-out: Bronchial Resistance (BR) ED50, Isoproterenol, isoproterenol as standard compound for the compound of the same line, i.v., anesthetized dogs) [µg/kg] | ED50 ([3]; i.v. 1 minute before histamine 10 μg/kg, anesthetized dogs, read-out: Bronchial Resistance (BR) ED50, Compound) [µg/kg]
1 | CC(C)(C)NCC(O)c1ccc(O)c(CO)c1 (centres unmarked) [Salubutamol (1), Salbutamol, reference compound] | 7.52 | 2.8 | 45.9 | 6.1 | 0.52 |  |  |  |  | 
2 | CCC(NCc1ccccc1)C(O)c1ccc(OC(=O)c2ccc(Cl)cc2)c2[nH]c(=O)ccc12.Cl (centres unmarked) [(11), 8-(4-chlorobenzoyloxy)-5-(1-hydroxy-2-benzylaminobutyl)carbostyril hydrochloride] | 7.2 | 4.2 | 46.7 | 6.50 |  | 0.91 |  |  |  | 
3 | CCC(NC(C)C)C(OC(=O)C1CCCCC1)c1ccc(OC(=O)c2ccc(C)cc2)c2[nH]c(=O)ccc12.Cl (centres unmarked) [(13), 8-(4-methylbenzoyloxy)-5-(1-cyclohexylcarbonyloxy-2-isopropylaminobutyl)carbostyril hydrochloride] | 11.3 | 6.02 | 66.9 | 5.92 |  | 0.71 | 147000 |  |  | 
4 | CCNC(CC)C(O)c1ccc(OC(=O)c2ccc(C)cc2)c2[nH]c(=O)ccc12.Cl (centres unmarked) [(9), 8-(4-methylbenzoyloxy)-5-(1-hydroxy-2-ethylaminobutyl)carbostyril hydrochloride] | 14.5 | 1.7 | 15.5 | 1.06 |  | 0.16 | 132000 |  |  | 
5 | CCNC(CC)C(O)c1ccc(O)c2[nH]c(=O)ccc12.Cl (centres unmarked) [Compound (2), 8-hydroxy-5-(1-hydroxy-2-ethylaminobutyl)carbostyril hydrochloride, reference compound] | 11.5 | 3.6 | 40.0 | 3.47 |  | 0.66 |  |  |  | 
6 | CC(C)NCC(O)c1ccc(O)c(O)c1 (centres unmarked) [Isoproterenol, reference compound] |  |  |  |  |  |  |  | 0.07 µg/kg and 0.10 µg/kg | 0.19 | 
7 | CCC(NC(C)C)C(O)c1ccc(OC(=O)Cc2ccccc2)c2[nH]c(=O)ccc12.Cl (centres unmarked) [(7), 8-phenylacetoxy-5-(1-hydroxy-2-isopropylaminobutyl)carbostyril hydrochloride] |  | 1.39 |  |  |  | 0.17 |  |  |  | 
8 | CC(C)C(=O)Oc1ccc(C(O)C(C)NC(C)(C)C)c2ccc(=O)[nH]c12 (centres unmarked) [(14), 8-isobutyryloxy-5-(1-hydroxy-2-tert-butylaminopropyl)carbostyril] | 12.3 | 3.86 | 48.3 | 3.92 |  |  |  |  |  | 0.47
9 | CCNC(CC)C(O)c1ccc(OC(=O)CC(C)C2CCCCC2)c2[nH]c(=O)ccc12.Cl (centres unmarked) [(5), 8-(3-cyclohexylbutyryloxy)-5-(1-hydroxy-2-ethylaminobutyl)carbostyril hydrochloride] | 12.7 | 6.5 | 65.4 | 5.15 |  | 0.67 |  |  |  | 
